Key:
Test in all cases: relative viability (nuclei count vs DMSO), 5 days (fraction); higher = more cells survive
Irinotecan + Dasatinib = compound: CCc1c2c(nc3ccc(OC(=O)N4CCC(N5CCCCC5)CC4)cc13)-c1cc3c(c(=O)n1C2)COC(=O)[C@]3(O)CC [Irinotecan] + Cc1nc(Nc2ncc(C(=O)Nc3c(C)cccc3Cl)s2)cc(N2CCN(CCO)CC2)n1 [Dasatinib] (partner 0.075 µM)
Summary of the method: (§1)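 Nuclei were stained with Hoechst during a one-step fixation (final 0.05% Triton X-100, 1% formaldehyde, 1 ug/ml Hoechst) carried out 5 days after dosing, then counted on 4× images. The cells, lung cancer lines in 1536-well plates, had been dosed by pin tool the day after seeding with one drug alone or a fixed anchor-drug dose plus five library-drug doses (not always all listed) in √10 steps. Relative viability is the nuclei count in treated wells divided by that in vehicle wells, and each value is the median of duplicate plates.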

Irinotecan + Phenformin = compound: CCc1c2c(nc3ccc(OC(=O)N4CCC(N5CCCCC5)CC4)cc13)-c1cc3c(c(=O)n1C2)COC(=O)[C@]3(O)CC [Irinotecan] + N=C(N)NC(=N)NCCc1ccccc1 [Phenformin] (partner 250 µM)
Summary of the method: as §1

Irinotecan + AZD7762 = compound: CCc1c2c(nc3ccc(OC(=O)N4CCC(N5CCCCC5)CC4)cc13)-c1cc3c(c(=O)n1C2)COC(=O)[C@]3(O)CC [Irinotecan] + NC(=O)Nc1cc(-c2cccc(F)c2)sc1C(=O)N[C@H]1CCCNC1 [AZD7762] (partner 0.2 µM)
Summary of the method: as §1

MK-8033 + Decitabine = compound: Cn1cc(-c2cnc3ccc4ccc(CS(=O)(=O)NCc5ccccn5)cc4c(=O)c3c2)cn1 [MK-8033] + Nc1ncn([C@H]2C[C@H](O)[C@@H](CO)O2)c(=O)n1 [Decitabine] (partner 2 µM)
Summary of the method: as §1

Cell Line | relative viability (Irinotecan + Dasatinib; first compound 0.6325 µM) | relative viability (Irinotecan + Dasatinib; first compound 2 µM) | relative viability (Irinotecan + Dasatinib; first compound 6.325 µM) | relative viability (Irinotecan + Dasatinib; first compound 20 µM) | relative viability (Irinotecan + Phenformin; first compound 0.6325 µM) | relative viability (Irinotecan + Phenformin; first compound 2 µM) | relative viability (Irinotecan + Phenformin; first compound 6.325 µM) | relative viability (Irinotecan + Phenformin; first compound 20 µM) | relative viability (Irinotecan + AZD7762; first compound 2 µM) | relative viability (Irinotecan + AZD7762; first compound 6.325 µM) | relative viability (Irinotecan + AZD7762; first compound 20 µM) | relative viability (MK-8033 + Decitabine; first compound 0.02 µM) | relative viability (MK-8033 + Decitabine; first compound 0.06325 µM) | relative viability (MK-8033 + Decitabine; first compound 0.2 µM) | relative viability (MK-8033 + Decitabine; first compound 0.6325 µM) | relative viability (MK-8033 + Decitabine; first compound 2 µM) | relative viability (Irinotecan + AZD7762; first compound 0.6325 µM)
NCI-H460 | 0.402 | 0.301 | 0.0681 | 0.0459 | 0.21 | 0.272 | 0.0796 | 0.0368 | 0.202 | 0.0963 | 0.0901 | 0.525 | 0.439 | 0.446 | 0.451 | 0.475 | –
NCI-H522 | 0.639 | 0.868 | 0.485 | 0.532 | 0.578 | 0.567 | 0.514 | 0.564 | 0.746 | 0.571 | 0.555 | 0.552 | 0.617 | 0.73 | 0.612 | 0.725 | 0.635
NCI-H596 | 0.576 | 0.765 | 0.703 | 0.633 | 0.699 | 0.83 | 0.784 | 0.745 | 1.15 | 0.88 | 0.913 | 0.987 | 0.901 | 0.921 | 1.12 | 1.03 | 1.07
NCI-H647 | 0.123 | 0.187 | 0.131 | 0.0807 | 0.463 | 0.644 | 0.161 | 0.104 | 0.273 | 0.131 | 0.2 | 0.33 | 0.362 | 0.382 | 0.372 | 0.305 | 0.294
NCI-H650 | 0.34 | 0.396 | 0.215 | 0.245 | 0.36 | 0.409 | 0.239 | 0.248 | 1.09 | 0.309 | 0.217 | 0.335 | 0.329 | 0.306 | 0.323 | 0.323 | 0.722
NCI-H727 | 0.243 | 0.467 | 0.437 | 0.438 | 0.464 | 0.611 | 0.524 | 0.413 | 0.575 | 0.406 | 0.342 | 0.846 | 0.783 | 0.921 | 0.927 | 0.829 | 0.462
NCI-H838 | 0.213 | 0.259 | 0.249 | 0.247 | 0.661 | 0.587 | 0.312 | 0.202 | 0.787 | 0.749 | 0.645 | 0.458 | 0.442 | 0.476 | 0.469 | 0.445 | 0.887
NCI-H1355 | – | 0.85 | 0.511 | 0.272 | – | 0.46 | 0.278 | 0.248 | 0.68 | 0.368 | 0.257 | 0.363 | 0.309 | 0.36 | 0.335 | 0.318 | –
NCI-H1395 | 0.298 | 0.535 | 0.415 | 0.522 | 0.403 | 0.493 | 0.389 | 0.399 | 0.441 | 0.424 | 0.233 | 0.68 | 0.701 | 0.71 | 0.7 | 0.693 | –
NCI-H1437 | 0.229 | 0.534 | 0.254 | 0.111 | 0.296 | 0.306 | 0.163 | 0.144 | 0.557 | 0.261 | 0.174 | 0.615 | 0.585 | 0.511 | 0.626 | 0.549 | 0.891
NCI-H1651 | 0.319 | 0.311 | 0.281 | 0.112 | 0.259 | 0.34 | 0.242 | 0.14 | 0.368 | 0.172 | 0.15 | 0.706 | 0.606 | 0.653 | 0.694 | 0.649 | 0.234
NCI-H1666 | 0.864 | 0.657 | 0.486 | 0.348 | 0.511 | 0.529 | 0.425 | 0.424 | 0.687 | 0.552 | 0.503 | 0.792 | 0.746 | 0.728 | 0.766 | 0.736 | 0.815
NCI-H1734 | – | 0.385 | 0.218 | 0.155 | – | 0.357 | 0.244 | 0.17 | 0.399 | 0.185 | 0.139 | 0.562 | 0.463 | 0.478 | 0.504 | 0.481 | –
NCI-H1755 | 0.373 | 0.45 | 0.308 | 0.271 | 0.498 | 0.603 | 0.296 | 0.307 | 0.47 | 0.345 | 0.327 | 0.743 | 0.673 | 0.769 | 0.64 | 0.691 | 0.53
NCI-H1792 | 0.803 | 0.747 | 0.506 | 0.192 | 0.273 | 0.424 | 0.314 | 0.28 | 0.502 | 0.169 | 0.274 | 0.527 | 0.508 | 0.47 | 0.522 | 0.537 | 0.241
NCI-H1793 | – | 0.385 | 0.252 | 0.234 | – | 0.347 | 0.263 | 0.185 | 0.387 | 0.232 | 0.217 | 0.486 | – | 0.51 | 0.379 | 0.543 | –

Cell Line | relative viability (Irinotecan + Dasatinib; first compound 0.6325 µM) | relative viability (Irinotecan + Dasatinib; first compound 2 µM) | relative viability (Irinotecan + Dasatinib; first compound 6.325 µM) | relative viability (Irinotecan + Dasatinib; first compound 20 µM) | relative viability (Irinotecan + Phenformin; first compound 0.6325 µM) | relative viability (Irinotecan + Phenformin; first compound 2 µM) | relative viability (Irinotecan + Phenformin; first compound 6.325 µM) | relative viability (Irinotecan + Phenformin; first compound 20 µM) | relative viability (Irinotecan + AZD7762; first compound 2 µM) | relative viability (Irinotecan + AZD7762; first compound 6.325 µM) | relative viability (Irinotecan + AZD7762; first compound 20 µM) | relative viability (MK-8033 + Decitabine; first compound 0.02 µM) | relative viability (MK-8033 + Decitabine; first compound 0.06325 µM) | relative viability (MK-8033 + Decitabine; first compound 0.2 µM) | relative viability (MK-8033 + Decitabine; first compound 0.6325 µM) | relative viability (MK-8033 + Decitabine; first compound 2 µM) | relative viability (Irinotecan + AZD7762; first compound 0.6325 µM)
NCI-H1915 | 0.215 | 0.221 | 0.132 | 0.128 | 0.268 | 0.27 | 0.2 | 0.195 | 0.346 | 0.165 | 0.127 | 0.255 | 0.239 | 0.255 | 0.266 | 0.264 | 0.387
NCI-H1944 | 0.151 | 0.189 | 0.121 | 0.107 | 0.191 | 0.187 | 0.132 | 0.132 | 0.276 | 0.21 | 0.153 | 0.42 | 0.388 | 0.44 | 0.456 | 0.458 | 0.414
NCI-H1975 | 0.28 | 0.469 | 0.305 | 0.155 | 0.407 | 0.448 | 0.296 | 0.194 | 0.7 | 0.527 | 0.322 | 0.351 | 0.328 | 0.358 | 0.342 | 0.427 | 0.826
NCI-H1993 | 0.549 | 0.601 | 0.484 | 0.603 | 0.536 | 0.503 | 0.531 | 0.551 | 0.681 | 0.508 | 0.603 | 0.488 | 0.624 | 0.557 | 0.563 | 0.546 | –
NCI-H2085 | 0.221 | 0.23 | 0.266 | 0.273 | 0.662 | 0.702 | 0.559 | 0.478 | 0.942 | 0.957 | 0.672 | 0.53 | 0.571 | 0.475 | 0.544 | 0.559 | 0.771
NCI-H2087 | 0.392 | 0.535 | 0.19 | 0.196 | 0.218 | 0.341 | 0.192 | 0.176 | 0.387 | 0.242 | 0.226 | 0.223 | 0.159 | 0.289 | 0.272 | 0.277 | 0.586
NCI-H2126 | – | 0.55 | 0.41 | 0.135 | – | 0.53 | 0.355 | 0.285 | 0.889 | 0.65 | 0.302 | 0.593 | 0.561 | 0.565 | 0.568 | 0.593 | 0.618
NCI-H2170 | 0.563 | 0.663 | 0.281 | 0.164 | 0.389 | 0.424 | 0.202 | 0.174 | 0.562 | 0.173 | 0.133 | 0.461 | 0.405 | 0.458 | 0.479 | 0.468 | 0.649
NCI-H2342 | 0.304 | 0.278 | 0.299 | 0.377 | 0.614 | 0.59 | 0.554 | 0.418 | 0.514 | 0.489 | 0.462 | 0.729 | 0.787 | 0.738 | 0.705 | 0.782 | 0.516
NCI-H2347 | 0.307 | 0.242 | 0.245 | 0.372 | 0.284 | 0.263 | 0.298 | 0.246 | 0.654 | 0.48 | 0.372 | 0.548 | 0.608 | 0.571 | 0.54 | 0.685 | 0.609
NCI-H2405 | – | 0.218 | 0.198 | 0.18 | – | 0.392 | 0.309 | 0.279 | 0.765 | 0.298 | 0.197 | 0.776 | 0.703 | 0.67 | 0.701 | 0.746 | –
NCI-H3122 | 0.142 | 0.619 | 0.149 | 0.117 | 0.364 | 0.341 | 0.235 | 0.088 | 0.34 | 0.145 | 0.139 | 0.441 | 0.478 | 0.406 | 0.508 | 0.469 | 0.941
PC-3 [JPC-3] | 0.882 | 0.915 | 0.693 | 0.345 | 0.424 | 0.472 | 0.318 | 0.349 | 0.864 | 0.463 | 0.398 | 0.803 | – | 0.748 | 0.845 | 0.804 | 0.465
PC-14 | 0.273 | 0.244 | 0.127 | 0.088 | – | 0.661 | 0.242 | 0.155 | 0.431 | 0.232 | 0.199 | 0.214 | 0.176 | 0.225 | 0.212 | 0.183 | 0.306
RERF-LC-KJ | 0.805 | 0.725 | 0.449 | 0.158 | 0.47 | 0.325 | 0.345 | 0.246 | 1.03 | 0.568 | 0.277 | 0.501 | 0.712 | 0.682 | 0.756 | 0.686 | 0.55
SW 900 | 0.688 | 0.707 | 0.509 | 0.488 | 0.425 | 0.664 | 0.447 | 0.37 | 0.587 | 0.472 | 0.404 | 0.483 | 0.328 | 0.496 | 0.549 | 0.41 | –
